In US20230416205A1, “COMPOUNDS, COMPOSITIONS, AND METHODS” (Denali Therapeutics Inc, priority 2020, published 2023) one finds IC50 data, which are given here for 23 compounds.

The test system of this experiment is NLRP3. Description: IL-1β secretion assay in PMA-differentiated, LPS/nigericin-stimulated THP-1 cells (384-well, ELISA read-out). The note with it: Homo sapiens. Type of experiment: cell-based, human. In a few lines: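 Secreted IL-1β quantified by capture ELISA from supernatants of PMA-differentiated THP-1 cells (30K per well). Sequence: LPS 25 ng/mL priming 2 h, compound 1 h, nigericin 2 h; dose-responses normalized between high (LPS plus 5 μM nigericin) and low (LPS alone) controls.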
On the technique in general: ELISA stands for enzyme-linked immunosorbent assay.

The mark [1] stands for this setting: THP-1, IL-1β secretion, PMA-differentiated THP-1 cells, LPS then nigericin stimulation, ELISA read at 450 nm, read-out: Activity.
[2] abbreviates: THP-1, Table 4, IL-1β secretion, LPS/nigericin-stimulated THP-1 cells, read-out: IC50.

Like-named read-outs stand apart in the source and are kept apart here. Bounds are passed on as bounds.

For `O=C(CN1CC2(CC2)c2cc(Br)ccc2C1=O)Nc1ccccc1OC(F)F` [Example 113, 2-(6-bromo-1-oxospiro[3H-isoquinoline-4,1′-cyclopropane]-2-yl)-N-[2-(difluoromethoxy)phenyl]acetamide], the IC50 reads like this: under setting [1], below 10 µM; under setting [2], 4.18 µM.
The corresponding values for `Cc1cccc(NC(=O)CN2CC3(CC3)c3cc(Br)ccc3C2=O)n1` [Example 114, 2-(6-bromo-1-oxospiro[3H-isoquinoline-4,1′-cyclopropane]-2-yl)-N-(6-methylpyridin-2-yl)acetamide] are below 10 µM and 1.99 µM.
Turning to `Cc1noc(NC(=O)CN2CC3(CC3)c3cc(Br)ccc3C2=O)c1C` [Example 115, 2-(6-bromo-1-oxospiro[3H-isoquinoline-4,1′-cyclopropane]-2-yl)-N-(3,4-dimethyl-1,2-oxazol-5-yl)acetamide], the IC50 runs as follows: under setting [1], above 15 µM; under setting [2], 15.4 µM.
On to `O=C(CN1CC2(CC2)c2cc(Br)ccc2C1=O)Nc1cccc2nccn12` [Example 116, 2-(6-bromo-1-oxospiro[3H-isoquinoline-4,1′-cyclopropane]-2-yl)-N-imidazo[1,2-a]pyridin-5-ylacetamide], for which the IC50 runs as follows: under setting [1], below 10 µM; under setting [2], 4.16 µM.
Regarding `O=C(CN1CC2(CC2)c2cc(Br)ccc2C1=O)NCC1COC1` [Example 117, 2-(6-bromo-1-oxospiro[3H-isoquinoline-4,1′-cyclopropane]-2-yl)-N-(oxetan-3-ylmethyl)acetamide], the IC50 under setting [1] was above 15 µM and the IC50 under setting [2] is 19.8 µM.
Regarding `O=C(CN1CC2(CC2)c2cc(Br)ccc2C1=O)NC1CS(=O)(=O)C1` [Example 118, 2-(6-bromo-1-oxospiro[3H-isoquinoline-4,1′-cyclopropane]-2-yl)-N-(1,1-dioxothietan-3-yl)acetamide], the IC50 by setting is: under setting [1], above 15 µM; under setting [2], 22.4 µM.
For the compound `O=C(CN1CC2(CC2)c2cc(Br)ccc2C1=O)NCc1ncco1` [Example 119, 2-(6-bromo-1-oxospiro[3H-isoquinoline-4,1′-cyclopropane]-2-yl)-N-(1,3-oxazol-2-ylmethyl)acetamide], the IC50 by setting is: under setting [1], above 15 µM; under setting [2], 30.1 µM.
Consider `Cn1ccnc1CNC(=O)CN1CC2(CC2)c2cc(Br)ccc2C1=O` [Example 120, 2-(6-bromo-1-oxospiro[3H-isoquinoline-4,1′-cyclopropane]-2-yl)-N-[(1-methylimidazol-2-yl)methyl]acetamide], for which the IC50 by setting is: under setting [1], above 15 µM; under setting [2], 24.8 µM.
The corresponding values for `O=C(CN1CC2(CC2)c2cc(Br)ccc2C1=O)NCCn1ccnc1` [Example 121, 2-(6-bromo-1-oxospiro[3H-isoquinoline-4,1′-cyclopropane]-2-yl)-N-(2-imidazol-1-ylethyl)acetamide] are 10 to 15 µM and 12.1 µM.
Take `O=C(CN1CC2(CC2)c2cc(Br)ccc2C1=O)NCc1ccncc1` [Example 122, 2-(6-bromo-1-oxospiro[3H-isoquinoline-4,1′-cyclopropane]-2-yl)-N-(pyridin-4-ylmethyl)acetamide]: the IC50 by setting is: under setting [1], above 15 µM; under setting [2], 29.9 µM.
In the case of `CN(Cc1cnn(C)c1)C(=O)CN1CC2(CC2)c2cc(Br)ccc2C1=O` [Example 123, 2-(6-bromo-1-oxospiro[3H-isoquinoline-4,1′-cyclopropane]-2-yl)-N-methyl-N-[(1-methylpyrazol-4-yl)methyl]acetamide], the IC50 was above 15 µM under setting [1] and 34.9 µM under setting [2].
Consider `Cn1nccc1CNC(=O)CN1CC2(CC2)c2cc(Br)ccc2C1=O` [Example 124, 2-(6-bromo-1-oxospiro[3H-isoquinoline-4,1′-cyclopropane]-2-yl)-N-[(2-methylpyrazol-3-yl)methyl]acetamide], for which the IC50 is above 15 µM under setting [1] and 27.7 µM under setting [2].
The corresponding values for `O=C(CN1CC2(CC2)c2cc(Br)ccc2C1=O)N1Cc2cccnc2C1` [Example 125, 6-bromo-2-[2-(5,7-dihydropyrrolo[3,4-b]pyridin-6-yl)-2-oxoethyl]spiro[3H-isoquinoline-4,1′-cyclopropane]-1-one] are above 15 µM and 26.7 µM.
On to `Cn1nc(C2CC2)cc1NC(=O)CN1CC2(CC2)c2cc(Br)ccc2C1=O` [Example 126, 2-(6-bromo-1-oxospiro[3H-isoquinoline-4,1′-cyclopropane]-2-yl)-N-(5-cyclopropyl-2-methylpyrazol-3-yl)acetamide], for which the IC50 is above 15 µM under setting [1] and 15.4 µM under setting [2].
As for `O=C(CN1CC2(CC2)c2cc(Br)ccc2C1=O)Nc1ccccc1` [Example 127, 2-(6-bromo-1-oxospiro[3H-isoquinoline-4,1′-cyclopropane]-2-yl)-N-phenylacetamide], the IC50 is, setting by setting: under setting [1], below 10 µM; under setting [2], 1.67 µM.
For `O=C(CN1CC2(CC2)c2cc(Br)ccc2C1=O)NCCN1CCOCC1` [Example 128, 2-(6-bromo-1-oxospiro[3H-isoquinoline-4,1′-cyclopropane]-2-yl)-N-(2-morpholin-4-ylethyl)acetamide], the IC50 is 10 to 15 µM under setting [1] and 12 µM under setting [2].
The corresponding values for `O=C(CN1CC2(CC2)c2cc(Br)ccc2C1=O)NC1Cc2ccccc2C1` [Example 129, 2-(6-bromo-1-oxospiro[3H-isoquinoline-4,1′-cyclopropane]-2-yl)-N-(2,3-dihydro-1H-inden-2-yl)acetamide] are below 10 µM and 7.2 µM.
The corresponding values for `O=C(CN1CC2(CC2)c2cc(Br)ccc2C1=O)Nc1ccc2ncccc2c1` [Example 130, 2-(6-bromo-1-oxospiro[3H-isoquinoline-4,1′-cyclopropane]-2-yl)-N-quinolin-6-ylacetamide] are below 10 µM and 1.23 µM.
The corresponding values for `O=C(CN1CC2(CC2)c2cc(Br)ccc2C1=O)Nc1cnc2ccccc2c1` [Example 131, 2-(6-bromo-1-oxospiro[3H-isoquinoline-4,1′-cyclopropane]-2-yl)-N-quinolin-3-ylacetamide] are below 10 µM and 7.7 µM.
On to `O=C(CN1CC2(CC2)c2cc(Br)ccc2C1=O)NCC(O)c1ccc(F)cc1` (stereo not drawn) [Example 132, 2-(6-bromo-1-oxospiro[3H-isoquinoline-4,1′-cyclopropane]-2-yl)-N-[2-(4-fluorophenyl)-2-hydroxyethyl]acetamide], for which the IC50 was above 15 µM under setting [1] and 29.7 µM under setting [2].
The corresponding values for `O=C(CN1CC2(CC2)c2cc(Br)ccc2C1=O)NCCC(F)(F)F` [Example 133, 2-(6-bromo-1-oxospiro[3H-isoquinoline-4,1′-cyclopropane]-2-yl)-N-(3,3,3-trifluoropropyl)acetamide] are below 10 µM and 9.24 µM.
With `CC(C)(C#N)NC(=O)CN1CC2(CC2)c2cc(Br)ccc2C1=O` [Example 134, 2-(6-bromo-1-oxospiro[3H-isoquinoline-4,1′-cyclopropane]-2-yl)-N-(2-cyanopropan-2-yl)acetamide], the IC50 under setting [1] was above 15 µM.
Consider `O=C(CN1CC2(CC2)c2cc(Br)ccc2C1=O)Nc1ccc2c(c1)CCO2` [Example 135, 2-(6-bromo-1-oxospiro[3H-isoquinoline-4,1′-cyclopropane]-2-yl)-N-(2,3-dihydro-1-benzofuran-5-yl)acetamide], for which the IC50 was below 10 µM under setting [1] and 1.22 µM under setting [2].
